Key:
Test in all cases: relative viability (nuclei count vs DMSO), 5 days (fraction); higher = more cells survive
[1] = compound: C1=CC=C2C(=C1)N=C(S2)C(C#N)C3=NC(=NC=C3)NCCC4=CN=CC=C4 + Cc1nc(Nc2ncc(C(=O)Nc3c(C)cccc3Cl)s2)cc(N2CCN(CCO)CC2)n1 [Dasatinib] (partner 0.075 µM)
How it was run: (§1)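 The day after seeding in 1536-well plates, lung cancer cell lines were treated by pin tool with a single drug, or with a fixed anchor-drug dose together with five library-drug doses (not always all listed) in √10 steps. After 5 days, a combined fix-and-stain solution (final 0.05% Triton X-100, 1% formaldehyde, 1 ug/ml Hoechst) was added. Nuclei counted on 4× images gave relative viability as treated counts over vehicle counts, reported as the median of duplicate plates.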

[2] = compound: C1=CC=C2C(=C1)N=C(S2)C(C#N)C3=NC(=NC=C3)NCCC4=CN=CC=C4 + CC(=O)c1c(C)c2cnc(Nc3ccc(N4CCNCC4)cn3)nc2n(C2CCCC2)c1=O [Palbociclib] (partner 0.5 µM)
How it was run: as §1

[3] = compound: C#Cc1cccc(Nc2ncnc3cc(OC)c(OCCCCCCC(=O)NO)cc23)c1 [CUDC-101] + C[C@@H](Oc1cc(-c2cnn(C3CCNCC3)c2)cnc1N)c1c(Cl)ccc(F)c1Cl [Crizotinib] (partner 1 µM)
How it was run: as §1

[4] = compound: COc1cc2/c(=N/c3ccc(Br)cc3F)nc[nH]c2cc1OCC1CCN(C)CC1 [Vandetanib] + CS(=O)(=O)CCNCc1ccc(-c2ccc3ncnc(Nc4ccc(OCc5cccc(F)c5)c(Cl)c4)c3c2)o1 [Lapatinib] (partner 2 µM)
How it was run: as §1

| Cell Line | relative viability ([1]; first compound 0.005 µM) | relative viability ([1]; first compound 0.01581 µM) | relative viability ([1]; first compound 0.05 µM) | relative viability ([1]; first compound 0.1581 µM) | relative viability ([1]; first compound 0.5 µM) | relative viability ([2]; first compound 0.005 µM) | relative viability ([2]; first compound 0.01581 µM) | relative viability ([2]; first compound 0.05 µM) | relative viability ([2]; first compound 0.1581 µM) | relative viability ([2]; first compound 0.5 µM) | relative viability ([3]; first compound 0.01 µM) | relative viability ([3]; first compound 0.03162 µM) | relative viability ([3]; first compound 0.1 µM) | relative viability ([3]; first compound 0.3162 µM) | relative viability ([3]; first compound 1 µM) | relative viability ([4]; first compound 0.02 µM) | relative viability ([4]; first compound 0.06325 µM) | relative viability ([4]; first compound 0.2 µM) | relative viability ([4]; first compound 0.6325 µM) | relative viability ([4]; first compound 2 µM) |
| --- | --- | --- | --- | --- | --- | --- | --- | --- | --- | --- | --- | --- | --- | --- | --- | --- | --- | --- | --- | --- |
| NCI-H2405 | 0.214 | 0.187 | 0.168 | 0.234 | 0.219 | 0.462 | 0.572 | 0.543 | 0.533 | 0.461 | 0.809 | 0.788 | 0.843 | 0.924 | 0.765 | 1.1 | 0.842 | 1.25 | 1.14 | 0.316 |
| NCI-H2087 | 0.72 | 0.927 | 0.81 | 1.09 | 0.651 | 0.24 | 0.208 | 0.214 | 0.261 | 0.227 | 0.798 | 0.959 | 0.804 | 0.855 | 0.642 | 0.894 | 0.916 | 0.988 | 1.06 | 1.08 |
| NCI-H2023 | 0.454 | 0.519 | 0.504 | 0.78 | 0.364 | 0.328 | 0.309 | 0.394 | 0.383 | 0.332 | 0.623 | 0.602 | 0.622 | 0.628 | 0.558 | 0.814 | 0.694 | 0.763 | 0.943 | 0.854 |
| NCI-H3122 | 0.826 | 0.824 | 0.873 | 1.03 | 0.686 | 0.162 | 0.208 | 0.199 | 0.184 | 0.178 | 0.265 | 0.282 | 0.271 | 0.317 | 0.265 | 1.05 | 0.975 | 1.04 | 1.06 | 1 |
| ChaGo-K-1 |  | 0.567 | 0.577 | 0.681 | 0.545 | 0.731 | 0.979 | 0.903 | 1.01 | 0.911 | 1.17 | 1.14 | 1.12 | 1.2 | 0.924 |  |  |  |  |  |
| NCI-H2347 | 0.359 | 0.814 | 0.261 | 0.347 | 0.307 | 0.455 | 0.45 | 0.484 | 0.447 | 0.444 | 0.749 | 0.68 | 0.714 | 0.673 | 0.721 | 0.972 | 0.701 | 0.913 | 0.964 | 0.89 |
| NCI-H460 | 0.356 | 0.47 | 0.451 | 0.732 | 0.418 |  | 0.146 | 0.118 | 0.147 | 0.143 | 1.04 | 0.982 | 0.719 | 1.06 | 0.787 | 0.878 | 0.962 | 0.969 | 0.951 | 0.874 |
